The values below come from patent publication US6593301B1, “Use of steroidal saponins for the prophylaxis or treatment of dementia, and novel steroidal saponin compounds” (Institute of Radiation Medicine, priority 2000, dated 2003).

Where two headings read alike, the source gives them in different places.

One data set relates to cerebral basilar artery. In words: Experiment on cerebral basilar artery (isolated artery on transducer, KCl as vasoconstrictor). The settings on record: for Effect on the basilar artery (dilation): 50 μl solution added to the bath. The procedure:
Take 50 μl solutions to dissolved in 5 ml saline again. (2). Remove the cerebrum and cerebellum from the fresh brain, and get the middle part of the basilar artery (3). Adjust the transducer and amplifier to make pointer return to zero (4). Hang the basilar artery on the transducer and immerse it in the bath.

A short description of data set [1]: Scavenging effects on hydroxyl free radicals (Fenton reaction, ESR).
Data set [2] deals with recombinant a4b2 subtype of chicken nicotinic receptor (M10 cells). The conditions noted are these: M10 cells treated three days, 1 μM up to 100 μM. As to the method:
(§1) In the experiments, we used two different cell lines, SY-SH5Y and M10. SY-SH5Y is human neuroblastoma cell which expresses natural nicotinic and muscarinic receptors, and M10 cell expresses the recombinant a4b2 subtype of chicken nicotinic receptor. We treated both cell lines with Compound III for three days with different concentrations from 1 μM up to 100 μM, and measured the amount of nAChRs.

The test system of data set [3] is nicotinic receptors (SY-SH5Y human neuroblastoma cell). The conditions noted are these: SY-SH5Y cells treated three days, 1 μM up to 100 μM. The procedure: as §1
The test system of the next data set is rat thoracic aorta. The conditions noted are these: 0.04 mM. From the text:
Take thoracic aorta from rat, remove the connective tissue and blood, immerse the aorta into the Krebs-Henselelt liquid and ventilate oxygen, hang the aorta on the transducer, and assay its radial tension.

For data set [4], the system named is rat hippocampus neuronal cells. Description: Proliferation of rat hippocampus neuronal cells (MTT staining, OD). Type of data set: cell-based. The settings on record: 7 days. The procedure:
1. Get hippocampus neuronal cells from rat embryo and do preliminary cell culture.
2. Incubate the cells for 7 days at different concentration (3 or 5 parallel holes for each group).
3. Do MTT staining and measure OD value.

For data set [5], the system named is cerebral blood flow of rat. The settings on record: for Mean of rCBF / Rate of rCBF increase / rCBF Rat 1 / rCBF Rat 2 / rCBF Rat 3 / rCBF Rat 4: 50 μg/Kg intravenous. The procedure:
Method: Hydrogen-clearing method
Instrument: LS-III Blood Flow Meter
1. Anesthetize the rat with 10% chloral hydrate, separate the general vein of thigh and intubate to prepare to inject Compound III.
2. Open a window in the parietal lobe of dermal epithelium with cranial drill and lay up hydrogen electrode.
3. After operation, collect the animal with the Blood Follow Meter and computer, steady for 30 minutes and begin to measure the rCBF (regional cerebral blood flow).

Consider `CC1=C(CC[C@H](C)CO[C@@H]2O[C@H](CO)[C@@H](O)[C@H](O)[C@H]2O)O[C@H]2C[C@H]3[C@@H]4CC[C@@H]5C[C@@H](O[C@@H]6O[C@H](CO)[C@H](O)[C@H](O)[C@H]6O[C@@H]6O[C@H](CO)[C@@H](O)[C@H](O)[C@H]6O)CC[C@]5(C)[C@H]4CC[C@]3(C)[C@@H]12` [Compound I, (25S)-26-O-β-D-glucopyranosyl-5β-furost-20(22)-ene-3β,26-diol-3-O-β-D-glucopyranosyl(1→2)-β-D-galactopyranoside], for which, in the data set on cerebral basilar artery, the “Effect on the basilar artery (dilation)” value is on record as “no obvious effect”. The same molecule came in with a Scavenging rate in data set [1] (5 mg/ml, ESR, Fenton reaction) of 23.3%. Also, the “Scavenging of hydroxyl free radicals produced by Fenton reaction (in words)” value in data set [1] (Fe^2++H2O2) is “could scavenge”.
`CC1=C(CC[C@H](C)CO[C@@H]2O[C@H](CO)[C@@H](O)[C@H](O)[C@H]2O)O[C@H]2C[C@H]3[C@@H]4CC[C@@H]5C[C@@H](O[C@@H]6O[C@H](CO)[C@@H](O)[C@H](O)[C@H]6O[C@@H]6O[C@H](CO)[C@@H](O)[C@H](O)[C@H]6O)CC[C@]5(C)[C@H]4CC[C@]3(C)[C@@H]12` [Compound II, (25S)-26-O-β-D-glucopyranosyl-5β-furost-20(22)-ene-3β,26-diol-3-O-β-D-glucopyranosyl(1→2)-β-D-glucopyranoside]: the “Effect on the basilar artery (dilation)” value with cerebral basilar artery is given as “no obvious effect”. This molecule also displayed a Scavenging rate in data set [1] (5 mg/ml, ESR, Fenton reaction) of 40.0%. The “Scavenging of hydroxyl free radicals produced by Fenton reaction (in words)” value in data set [1] (Fe^2++H2O2) is “could scavenge”.
For `C[C@@H](CCC1(O)O[C@H]2C[C@H]3[C@@H]4CC[C@@H]5C[C@@H](O[C@@H]6O[C@H](CO)[C@H](O)[C@H](O)[C@H]6O[C@@H]6O[C@H](CO)[C@@H](O)[C@H](O)[C@H]6O)CC[C@]5(C)[C@H]4CC[C@]3(C)[C@H]2[C@@H]1C)CO[C@@H]1O[C@H](CO)[C@@H](O)[C@H](O)[C@H]1O` (stereo partly drawn) [Compound III, (25S)-26-β-D-glucopyranosyl-22-hydroxy-5β-furost-3β,26-diol-3-0-β-D-glucopyranosyl(1→2)-β-D-galactopyranoside], the “Effect on the basilar artery (dilation)” value with cerebral basilar artery is given as “dilated slightly”. In addition, the “Contraction of the basilar artery when adding the vasoconstrictor KCl” value with cerebral basilar artery (after 50 μl compound added to the bath) was “did not contract again”. In the data set on cerebral basilar artery (at 10^−5 g/ml (0.01 mM)), the “Dilation of cerebral vascular and resistance to contraction caused by vasoconstrictor” value was “could dilate cerebral vascular and resist the contraction caused by vasoconstrictor”. The “Effective concentration compared with positive Ligustrazine” value in the data set with cerebral basilar artery (same experimental conditions) is given as “two orders of magnitude lower”. Also, the “Number of nAChRs” value in data set [2] and in data set [3] was “significantly up-regulate” in each case. Further, the “Inhibitory rate (hydroxyl free radicals)” value in data set [1] is recorded as 56.7%. In data set [1], the “Scavenging effect relative to the other compounds” value is on record as “most effective”. Also, the “Scavenging of hydroxyl free radicals produced by Fenton reaction (in words)” value in data set [1] is “could scavenge”. In data set [1], the Scavenging rate came out at 56.7%. Also, the “Inhibition of contraction of rat aorta caused by KCl” value in the data set with rat thoracic aorta is “could restrain the contraction”. Further, the “Mean of OD” value was 0.0773 in data set [4] (0.1 μg/ml); 0.0663 in data set [4] (1 μg/ml); 0.0860 in data set [4] (10 μg/ml); 0.0807 in data set [4] (50 μg/ml); 0.0750 in data set [4] (100 μg/ml); 0.0903 in data set [4] (500 μg/ml). Besides, the “Mean of OD” value in data set [4] (1000 μg/ml) is reported as 0.0673. Further, the Proliferation rate in data set [4] (0.1 μg/ml) turned out to be 23.88%; in data set [4] (1 μg/ml), 6.25%; in data set [4] (10 μg/ml) it was 37.82%; in data set [4] (50 μg/ml), 29.33%; in data set [4] (100 μg/ml), 20.19%; in data set [4] (500 μg/ml), 44.71%. In data set [4] (1000 μg/ml), this molecule registered a Proliferation rate of 7.853%. Moreover, the “Mean of rCBF” value was 141562.5 µL/min/mg in data set [5] (1 min); 149785 µL/min/mg in data set [5] (10 min); 148405 µL/min/mg in data set [5] (20 min); 163497.5 µL/min/mg in data set [5] (30 min); 164670 µL/min/mg in data set [5] (40 min); 166147.5 µL/min/mg in data set [5] (50 min). The “Rate of rCBF increase” value in data set [5] (1 min) amounted to 7.806%; in data set [5] (10 min), 14.07%; in data set [5] (20 min), 13.02%; in data set [5] (30 min) it was 24.51%; in data set [5] (40 min), 25.4%; in data set [5] (50 min), 26.53%. The “rCBF Rat 1” value in data set [5] (1 min) came out at 133300 µL/min/mg; in data set [5] (10 min), 147990 µL/min/mg; in data set [5] (20 min), 158460 µL/min/mg; in data set [5] (30 min), 164610 µL/min/mg; in data set [5] (40 min), 176900 µL/min/mg; in data set [5] (50 min), 176770 µL/min/mg. The “rCBF Rat 2” value in data set [5] (1 min) worked out at 150050 µL/min/mg; in data set [5] (10 min) it was 143410 µL/min/mg; in data set [5] (20 min), 136330 µL/min/mg; in data set [5] (30 min) it was 182960 µL/min/mg; in data set [5] (40 min), 202460 µL/min/mg; in data set [5] (50 min) it was 193570 µL/min/mg. The “rCBF Rat 3” value in data set [5] (1 min) was 139550 µL/min/mg; in data set [5] (10 min) it was 162100 µL/min/mg; in data set [5] (20 min) it was 177590 µL/min/mg; in data set [5] (30 min) it was 171420 µL/min/mg; in data set [5] (40 min), 165940 µL/min/mg; in data set [5] (50 min), 163080 µL/min/mg. Also, the “rCBF Rat 4” value in data set [5] (1 min) turned out to be 143350 µL/min/mg; in data set [5] (10 min), 145640 µL/min/mg; in data set [5] (20 min) it was 121240 µL/min/mg; in data set [5] (30 min), 135000 µL/min/mg; in data set [5] (40 min) it was 113380 µL/min/mg; in data set [5] (50 min), 131170 µL/min/mg. In addition, the “Increase of the rCBF of rat” value in data set [5] (50 μg/kg in vivo (text summary, time not stated)) is reported as 26.5%. For the same molecule, the Hemolysis entry in data set [5] (administered intravenously at the effective concentration (50 μg/kg)) is on record as “no hemolysis”.
In the case of `COC1(CC[C@H](C)CO[C@@H]2O[C@H](CO)[C@@H](O)[C@H](O)[C@H]2O)O[C@H]2C[C@H]3[C@@H]4CC[C@@H]5C[C@@H](O[C@@H]6O[C@H](CO)[C@H](O)[C@H](O)[C@H]6O[C@@H]6O[C@H](CO)[C@@H](O)[C@H](O)[C@H]6O)CC[C@]5(C)[C@H]4CC[C@]3(C)[C@H]2[C@@H]1C` (stereo partly drawn) [Compound IV, (25S)-26-0-β-D-glucopyranosyl-22-methoxy-5β-furost-3β,26-diol-3-0-β-D-glucopyranosyl(1→2)-β-D-galactopyranoside], in the data set on cerebral basilar artery, the “Effect on the basilar artery (dilation)” value is given as “no obvious effect”. In data set [1], the “Scavenging of hydroxyl free radicals produced by Fenton reaction (in words)” value is “could scavenge” and the Scavenging rate amounted to 33.3%.
